Measurements reported in EPA's ToxRefDB 2.

Experiments:
[1] = system: mouse; conditions: Multigenerational reproductive toxicity study, cd1, Oral, Gavage/Intubation, dose end: 2 generation
[2] = system: mouse; conditions: Multigenerational reproductive toxicity study, cd1, Oral, Gavage/Intubation, dose end: 1 generation
[3] = system: mouse; conditions: Subchronic oral toxicity in rodents, b6c3f1, Gavage/Intubation, dose end: 14 week, group: systemic
[4] = system: mouse; conditions: Subchronic oral toxicity in rodents, b6c3f1, Gavage/Intubation, dose end: 94 day, group: systemic, systemic / hematology / erythrocyte (rbc) count differential / erythrocyte (rbc) + systemic / hematology / hematocrit (hct) / hematocrit (…
[5] = system: mouse; conditions: Prenatal developmental toxicity study, cd1, Oral, Gavage/Intubation, dose end: 16 GD, group: developmental
[6] = system: mouse; conditions: Other (NonGuideline or Guideline Not Listed), cd1, Oral, Gavage/Intubation, dose end: 2 year, group: cannot be grouped
[7] = system: mouse; conditions: Prenatal developmental toxicity study, swiss albino, Oral, Gavage/Intubation, dose end: 15 GD
[8] = system: mouse; conditions: Carcinogenicity, b6c3f1, Oral, Gavage/Intubation, dose end: 2 year, group: systemic
[9] = system: rat; conditions: Carcinogenicity, fischer, Oral, Gavage/Intubation, dose end: 103 week, group: systemic
[10] = system: rat; conditions: Subchronic oral toxicity in rodents, fischer, Gavage/Intubation, dose end: 13 week, group: systemic, systemic / in life observation / clinical signs / lethargy + systemic / in life observation / mortality / mortality
[11] = system: mouse; conditions: Carcinogenicity; b6c3f1; Oral; Gavage/Intubation; dose end: 103 week; group: systemic; systemic / pathology microscopic / kidney / inflammation + systemic / pathology microscopic / liver / cytomegaly + systemic / pathology …
[12] = system: rat; conditions: Sub-acute repeat dose toxicity, fischer, Oral, Gavage/Intubation, dose end: 16 day, group: systemic
[13] = system: mouse; conditions: Subchronic oral toxicity in rodents, b6c3f1, Gavage/Intubation, dose end: 13 week, group: systemic
[14] = system: mouse; conditions: Sub-acute repeat dose toxicity, b6c3f1, Oral, Gavage/Intubation, dose end: 16 day, group: systemic
[15] = group: offspring, systemic / in life observation / body weight / offspring (pup) weight
[16] = group: parental, systemic / in life observation / body weight / body weight + systemic / in life observation / body weight / dam weight + systemic / …
[17] = group: parental, systemic / in life observation / body weight / body weight + systemic / pathology gross / sperm measure / sperm morphology + systemic / …
[18] = group: reproductive, reproductive / offspring survival early / live fetuses / live fetuses
[19] = group: reproductive, reproductive / reproductive performance / reproductive performance other / NOS + reproductive / reproductive performance / gestational …
[20] = group: parental, systemic / hematology / leukocyte (wbc) count differential / leukocyte (wbc) + systemic / hematology / mean corpuscular (cell) volume (mcv…
[21] = group: parental, systemic / hematology / mean corpuscular (cell) volume (mcv) / mean corpuscular (cell) volume (mcv) + systemic / hematology / mean …
[22] = group: reproductive, reproductive / reproductive performance / pregnancy / pregnancy + reproductive / reproductive performance / resorptions / resorptions + …
[23] = systemic / hematology / erythrocyte (rbc) count differential / erythrocyte (rbc) + systemic / hematology / hematocrit (hct) / hematocrit (…
[24] = developmental / developmental malformation / bone / supernumerary + systemic / in life observation / body weight / fetal weight
[25] = systemic / in life observation / body weight / fetal weight
[26] = reproductive / reproductive performance / fertility / fertility + reproductive / offspring survival early / litter size / litter size + …
[27] = group: developmental, systemic / in life observation / body weight / fetal weight
[28] = group: maternal, systemic / in life observation / food consumption / food consumption
[29] = systemic / hematology / erythrocyte (rbc) count differential / erythrocyte (rbc) + systemic / hematology / mean corpuscular (cell) volume (…
[30] = systemic / pathology microscopic / kidney / hyperplasia + systemic / pathology microscopic / kidney / mineralization
[31] = systemic / pathology microscopic / kidney / hyperplasia + systemic / pathology microscopic / kidney / mineralization + systemic / pathology …
[32] = systemic / in life observation / body weight / body weight
[33] = systemic / in life observation / clinical signs / lethargy
[34] = systemic / in life observation / mortality / mortality
[35] = systemic / in life observation / mortality / mortality + systemic / in life observation / body weight / body weight
[36] = systemic / in life observation / body weight / body weight + systemic / in life observation / clinical signs / abnormal movements + systemic…

Molecule `Cc1cn([C@H]2C[C@H](N=[N+]=[N-])[C@@H](CO)O2)c(=O)[nH]c1=O` [3'-Azido-3'-deoxythymidine] has an LEL [1, 15] of 200 mg/kg/day, an LOAEL [1, 15] of over 200 mg/kg/day and an NEL [1, 15] of 100 mg/kg/day. It also gave an NOAEL [1, 15] of at least 200 mg/kg/day, an LOAEL [1, 16] of over 200 mg/kg/day and an NOAEL [1, 16] of at least 200 mg/kg/day. For the same molecule, the LEL [1, 17] was 50 mg/kg/day, the NEL [1, 17] was under 50 mg/kg/day and the LEL [1, 18] was 50 mg/kg/day. For the same molecule, the NEL [1, 18] was under 50 mg/kg/day, the LOAEL [1, 19] was over 200 mg/kg/day and the NOAEL [1, 19] was at least 200 mg/kg/day. It also gave an LOAEL [2, 20] of over 400 mg/kg/day, an NOAEL [2, 20] of at least 400 mg/kg/day and an LEL [2, 21] of 100 mg/kg/day. For the same molecule, the NEL [2, 21] was under 100 mg/kg/day, the LEL ([2]; group: reproductive, reproductive / reproductive performance / pregnancy / pregnancy) was 200 mg/kg/day and the NEL ([2]; group: reproductive, reproductive / reproductive performance / pregnancy / pregnancy + reproductive / reproductive performance / resorptions / resorptions) was 100 mg/kg/day. For the same molecule, the LOAEL [2, 22] was over 400 mg/kg/day, the NOAEL [2, 22] was at least 400 mg/kg/day and the LEL [3, 23] was 50 mg/kg/day. The NEL [3, 23] was under 50 mg/kg/day, the LOAEL ([3]; systemic / in life observation / body weight / body weight gain + systemic / pathology microscopic / bone marrow / atrophy) was 800 mg/kg/day and the NOAEL ([3]; systemic / in life observation / body weight / body weight gain + systemic / pathology microscopic / bone marrow / atrophy + systemic / …) was 200 mg/kg/day. It also gave an LEL [4] of 100 mg/kg/day, an LOAEL [4] of over 400 mg/kg/day and an NEL [4] of under 100 mg/kg/day. For the same molecule, the NOAEL [4] was at least 400 mg/kg/day, the LOAEL [5, 24] was over 400 mg/kg/day and the NOAEL [5, 24] was at least 400 mg/kg/day. It also gave an LEL [5, 25] of 100 mg/kg/day, an NEL [5, 25] of under 100 mg/kg/day and an NEL ([6]; reproductive / reproductive performance / fertility / fertility) of 100 mg/kg/day. The LEL [6, 26] was 200 mg/kg/day, the LOAEL [6, 26] was over 300 mg/kg/day and the NOAEL [6, 26] was at least 300 mg/kg/day. It also gave an LEL [7, 27] of 100 mg/kg/day, an LOAEL [7, 27] of over 400 mg/kg/day and an NEL [7, 27] of under 100 mg/kg/day. For the same molecule, the NOAEL [7, 27] was at least 400 mg/kg/day, the LEL [7, 28] was 400 mg/kg/day and the LOAEL [7, 28] was over 400 mg/kg/day. The NEL [7, 28] was 200 mg/kg/day, the NOAEL [7, 28] was at least 400 mg/kg/day and the LEL [8, 29] was 30 mg/kg/day. For the same molecule, the NEL [8, 29] was under 30 mg/kg/day, the LOAEL ([8]; systemic / pathology microscopic / vagina / hyperplasia) was 120 mg/kg/day and the NOAEL ([8]; systemic / pathology microscopic / vagina / hyperplasia + systemic / pathology microscopic / liver / adenoma/carcinoma combined + systemic…) was 60 mg/kg/day.

`CC1=CC(=O)CC(C)(C)C1` [Isophorone] was tested, and the LOAEL [9, 30] was 250 mg/kg/day, the NOAEL [9, 30] was under 250 mg/kg/day and the LEL [9, 31] was 250 mg/kg/day. It also gave an NEL [9, 31] of under 250 mg/kg/day, an LEL [10] of 1000 mg/kg/day and an LOAEL [10] of over 1000 mg/kg/day. It also gave an NEL [10] of 500 mg/kg/day, an NOAEL [10] of at least 1000 mg/kg/day and an LEL [11] of 250 mg/kg/day. For the same molecule, the LOAEL [11] was 250 mg/kg/day, the NEL [11] was under 250 mg/kg/day and the NOAEL [11] was under 250 mg/kg/day. It also gave an LOAEL [12, 32] of 1000 mg/kg/day, an LEL [12, 33] of 125 mg/kg/day and an NEL [12, 33] of under 125 mg/kg/day. For the same molecule, the NOAEL ([12]; systemic / in life observation / clinical signs / lethargy + systemic / in life observation / body weight / body weight + systemic / in life…) was 500 mg/kg/day, the LEL [13, 34] was 1000 mg/kg/day and the NEL [13, 34] was 500 mg/kg/day. It also gave an LOAEL [13, 35] of over 1000 mg/kg/day, an NOAEL [13, 35] of at least 1000 mg/kg/day and an LEL [14, 32] of 250 mg/kg/day. The LOAEL [14, 32] was 250 mg/kg/day, the NEL [14, 36] was 125 mg/kg/day and the NOAEL [14, 36] was 125 mg/kg/day.
